ChEMBL document CHEMBL4819046, “One pot synthesis, in silico study and evaluation of some novel flavonoids as potent topoisomerase II inhibitors” (Bioorg Med Chem Lett, 2021)
Activity calls are given as the source filed them. The rule behind the calls is not given here.

How the values were obtained:
MCF-10A [1] = experiment: Cytotoxicity against human MCF-10A cells at <= 25 uM after 72 hrs by MTT assay; type: cell-based
MCF-10A [2] = experiment: Cytotoxicity against human MCF-10A cells assessed as reduction in cell viability after 72 hrs by MTT assay; type: cell-based
[3] = target: T1, DNA topoisomerase 2-alpha (Homo sapiens, UniProt P11388); experiment: Inhibition of human topoisomerase-2 alpha in human A498 cells assessed as decrease in relaxation of supercoiled DNA at 10 uM; type: cell-based
MCF7 = experiment: Cytotoxicity against human MCF7 cells assessed as inhibition of cell proliferation after 72 hrs by MTT assay; type: functional, cell-based; details: MCF7, 72 h
MCF-10A [4] = experiment: Cytotoxicity against human MCF-10A cells at 50 uM after 72 hrs by MTT assay; type: cell-based
A549 = experiment: Cytotoxicity against human A549 cells assessed as inhibition of cell proliferation after 72 hrs by MTT assay; type: functional, cell-based; details: A549, 72 h
HepG2 = experiment: Cytotoxicity against human HepG2 cells assessed as inhibition of cell proliferation after 72 hrs by MTT assay; type: functional, cell-based; details: HepG2, 72 h
MCF-10A [5] = experiment: Cytotoxicity against human MCF-10A cells at 100 uM after 72 hrs by MTT assay; type: cell-based
[6] = target: T1, DNA topoisomerase 2-alpha; experiment: Inhibition of human topoisomerase-2alpha assessed as reduction in pBR322 DNA relaxation by gel electrophoresis method

T1 sequence (P11388 whole entry): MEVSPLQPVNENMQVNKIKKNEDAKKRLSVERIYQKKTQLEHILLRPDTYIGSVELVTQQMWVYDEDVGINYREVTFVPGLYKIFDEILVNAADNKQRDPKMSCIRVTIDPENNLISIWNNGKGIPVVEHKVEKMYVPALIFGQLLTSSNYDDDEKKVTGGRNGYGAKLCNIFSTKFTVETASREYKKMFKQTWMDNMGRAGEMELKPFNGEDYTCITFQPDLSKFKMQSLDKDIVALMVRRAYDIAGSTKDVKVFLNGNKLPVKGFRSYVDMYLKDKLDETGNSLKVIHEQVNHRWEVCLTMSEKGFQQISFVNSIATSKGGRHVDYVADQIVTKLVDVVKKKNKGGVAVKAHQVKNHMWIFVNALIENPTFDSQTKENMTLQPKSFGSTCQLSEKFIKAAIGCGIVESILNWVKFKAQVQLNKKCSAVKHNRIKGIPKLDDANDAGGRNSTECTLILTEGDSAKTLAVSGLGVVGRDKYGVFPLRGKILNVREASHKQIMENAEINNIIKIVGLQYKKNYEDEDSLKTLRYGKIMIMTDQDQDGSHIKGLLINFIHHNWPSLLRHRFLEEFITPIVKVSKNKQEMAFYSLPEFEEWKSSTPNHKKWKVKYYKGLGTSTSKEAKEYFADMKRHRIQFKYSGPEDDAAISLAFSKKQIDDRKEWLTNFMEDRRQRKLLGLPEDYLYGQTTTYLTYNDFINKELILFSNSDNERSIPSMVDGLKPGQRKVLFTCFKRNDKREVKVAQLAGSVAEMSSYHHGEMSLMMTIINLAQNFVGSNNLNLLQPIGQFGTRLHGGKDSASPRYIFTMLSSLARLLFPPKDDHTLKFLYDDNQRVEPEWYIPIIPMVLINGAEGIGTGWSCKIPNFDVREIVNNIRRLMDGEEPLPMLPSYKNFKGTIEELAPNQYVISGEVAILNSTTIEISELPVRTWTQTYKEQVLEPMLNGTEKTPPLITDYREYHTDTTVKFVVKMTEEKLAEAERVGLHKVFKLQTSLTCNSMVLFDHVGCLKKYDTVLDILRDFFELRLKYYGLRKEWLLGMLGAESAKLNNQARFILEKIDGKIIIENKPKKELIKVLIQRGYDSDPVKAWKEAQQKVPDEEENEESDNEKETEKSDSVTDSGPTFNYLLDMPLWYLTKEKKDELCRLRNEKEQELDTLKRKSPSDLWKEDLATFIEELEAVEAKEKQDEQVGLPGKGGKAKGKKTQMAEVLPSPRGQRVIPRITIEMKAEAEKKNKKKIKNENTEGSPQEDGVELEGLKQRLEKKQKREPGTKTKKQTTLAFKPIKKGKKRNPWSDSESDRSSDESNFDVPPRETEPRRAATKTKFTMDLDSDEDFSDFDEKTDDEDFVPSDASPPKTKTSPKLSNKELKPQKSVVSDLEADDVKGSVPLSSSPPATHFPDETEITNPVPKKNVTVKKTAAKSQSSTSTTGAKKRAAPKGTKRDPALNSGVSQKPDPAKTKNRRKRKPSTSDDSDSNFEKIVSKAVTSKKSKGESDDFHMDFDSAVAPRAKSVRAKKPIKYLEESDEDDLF

## N#CC1=C(N)Oc2c(c(=O)oc3ccccc23)C1c1cc(=O)c2ccccc2o1 (configuration not stated)
MCF-10A [1]
  Activity: Non-Toxic
MCF-10A [2]
  IC50: 90 µM
[3]
  IC50: 26.4 µM
MCF7
  IC50: 12.5 µM
MCF-10A [4]
  Activity: Toxic
A549
  IC50: 1.56 µM
HepG2
  IC50: 6.25 µM

## Cc1cccc(-n2c(-c3coc4cc(C)c(Cl)cc4c3=O)nc(-c3ccccc3)c2-c2ccccc2)c1
MCF-10A [1]
  Activity: Non-Toxic
MCF7
  IC50: 12.5 µM
MCF-10A [5]
  Activity: Toxic
A549
  IC50: 12.5 µM
HepG2
  IC50: 6.25 µM

## Cc1cc2occ(-c3nc(-c4ccccc4)c(-c4ccccc4)n3-c3cccc(Cl)c3)c(=O)c2cc1Cl
MCF-10A [1]
  Activity: Non-Toxic
MCF7
  IC50: 6.25 µM
MCF-10A [5]
  Activity: Toxic
A549
  IC50: 25 µM
HepG2
  IC50: 25 µM

## Cc1cc2occ(-c3nc(-c4ccccc4)c(-c4ccccc4)n3-c3ccc(Cl)cc3)c(=O)c2cc1Cl
MCF-10A [1]
  Activity: Non-Toxic
MCF-10A [2]
  IC50: 92 µM
MCF7
  IC50: 12.5 µM
MCF-10A [4]
  Activity: Toxic
A549
  IC50: 12.5 µM
HepG2
  IC50: 1.56 µM

## N#CC1=C(N)Oc2c(c(=O)oc3ccccc23)C1c1cc2ccccc2c2ccccc12 (configuration not stated)
MCF-10A [1]
  Activity: Non-Toxic
MCF7
  IC50: 25 µM
MCF-10A [5]
  Activity: Toxic
A549
  IC50: 25 µM
HepG2
  IC50: 25 µM

## COc1ccccc1-n1c(-c2coc3cc(C)c(Cl)cc3c2=O)nc(-c2ccccc2)c1-c1ccccc1
MCF-10A [1]
  Activity: Non-Toxic
MCF7
  IC50: 25 µM
MCF-10A [5]
  Activity: Toxic
A549
  IC50: 12.5 µM
HepG2
  IC50: 12.5 µM

## Cc1ccc(-n2c(-c3coc4cc(C)c(Cl)cc4c3=O)nc(-c3ccccc3)c2-c2ccccc2)cc1
MCF-10A [1]
  Activity: Non-Toxic
MCF7
  IC50: 12.5 µM
MCF-10A [5]
  Activity: Toxic
A549
  IC50: 12.5 µM
HepG2
  IC50: 6.25 µM

## N#CC1=C(N)Oc2c(c(=O)oc3ccccc23)C1c1cnc2ccccc2c1 (configuration not stated)
MCF-10A [1]
  Activity: Non-Toxic
MCF-10A [2]
  IC50: 94 µM
[3]
  IC50: 16.7 µM
MCF7
  IC50: 1.56 µM
MCF-10A [4]
  Activity: Toxic
A549
  IC50: 6.25 µM
HepG2
  IC50: 6.25 µM

## Cc1cc2occ(-c3nc(-c4ccccc4)c(-c4ccccc4)n3-c3ccc(Br)cc3)c(=O)c2cc1Cl
MCF-10A [1]
  Activity: Non-Toxic
MCF-10A [2]
  IC50: > 100 µM
[3]
  IC50: 17.1 µM
MCF7
  IC50: 1.56 µM
MCF-10A [4]
  Activity: Toxic
A549
  IC50: 25 µM
HepG2
  IC50: 6.25 µM

## Cc1ccc(-n2c(-c3coc4cc(C)c(Cl)cc4c3=O)nc(-c3ccccc3)c2-c2ccccc2)c(C)c1
MCF-10A [1]
  Activity: Non-Toxic
MCF7
  IC50: 6.25 µM
MCF-10A [5]
  Activity: Toxic
A549
  IC50: 6.25 µM
HepG2
  IC50: 3.12 µM

## Cc1cc2occ(-c3nc(-c4ccccc4)c(-c4ccccc4)n3-c3cccc([N+](=O)[O-])c3)c(=O)c2cc1Cl
MCF-10A [1]
  Activity: Non-Toxic
MCF7
  IC50: 1.56 µM
MCF-10A [4]
  Activity: Toxic
A549
  IC50: 6.25 µM
HepG2
  IC50: 25 µM

## N#CC1=C(N)Oc2c(c(=O)oc3ccccc23)C1c1c2ccccc2cc2ccccc12 (configuration not stated)
MCF-10A [1]
  Activity: Non-Toxic
MCF7
  IC50: 12.5 µM
MCF-10A [5]
  Activity: Toxic
A549
  IC50: 25 µM
HepG2
  IC50: 25 µM

## COc1ccc(C2C(C#N)=C(N)Oc3c2c(=O)oc2ccccc32)c(OC)c1 (configuration not stated)
MCF-10A [1]
  Activity: Non-Toxic
MCF7
  IC50: 25 µM
MCF-10A [5]
  Activity: Toxic
A549
  IC50: 6.25 µM
HepG2
  IC50: 3.12 µM

## N#CC1=C(N)Oc2c(c(=O)oc3ccccc23)C1c1cc2ccccc2s1 (configuration not stated)
MCF-10A [1]
  Activity: Non-Toxic
MCF-10A [2]
  IC50: 98 µM
[3]
  IC50: 10.3 µM
MCF7
  IC50: 1.56 µM
[6]
  inhibition: Active
MCF-10A [4]
  Activity: Toxic
A549
  IC50: 1.56 µM
HepG2
  IC50: 6.25 µM

## Cc1cc2occ(C3C(C#N)=C(N)Oc4c3c(=O)oc3ccccc43)c(=O)c2cc1Cl (configuration not stated)
MCF-10A [1]
  Activity: Non-Toxic
MCF7
  IC50: 6.25 µM
MCF-10A [5]
  Activity: Toxic
A549
  IC50: 6.25 µM
HepG2
  IC50: 12.5 µM

## N#CC1=C(N)Oc2c(c(=O)oc3ccccc23)C1C1CC1 (configuration not stated)
MCF-10A [1]
  Activity: Non-Toxic
MCF7
  IC50: 25 µM
MCF-10A [5]
  Activity: Toxic
A549
  IC50: 25 µM
HepG2
  IC50: 12.5 µM

## Cc1cc2occ(-c3nc(-c4ccccc4)c(-c4ccccc4)n3-c3ccccc3Cl)c(=O)c2cc1Cl
MCF-10A [1]
  Activity: Non-Toxic
MCF7
  IC50: 3.12 µM
MCF-10A [5]
  Activity: Toxic
A549
  IC50: 12.5 µM
HepG2
  IC50: 6.25 µM

## Cc1cc2occ(-c3nc(-c4ccccc4)c(-c4ccccc4)n3-c3ccc([N+](=O)[O-])cc3)c(=O)c2cc1Cl
MCF-10A [1]
  Activity: Non-Toxic
MCF-10A [2]
  IC50: > 100 µM
[3]
  IC50: 48.4 µM
MCF7
  IC50: 6.25 µM
MCF-10A [5]
  Activity: Toxic
A549
  IC50: 3.12 µM
HepG2
  IC50: 25 µM

## COc1cccc(-n2c(-c3coc4cc(C)c(Cl)cc4c3=O)nc(-c3ccccc3)c2-c2ccccc2)c1
MCF-10A [1]
  Activity: Non-Toxic
MCF7
  IC50: 25 µM
MCF-10A [5]
  Activity: Toxic
A549
  IC50: 6.25 µM
HepG2
  IC50: 6.25 µM

## N#CC1=C(N)Oc2c(c(=O)oc3ccccc23)C1c1c[nH]c2ccccc12 (configuration not stated)
MCF-10A [1]
  Activity: Non-Toxic
MCF-10A [2]
  IC50: 94 µM
[3]
  IC50: 12.4 µM
MCF7
  IC50: 1.56 µM
[6]
  inhibition: Active
MCF-10A [4]
  Activity: Toxic
A549
  IC50: 1.56 µM
HepG2
  IC50: 12.5 µM

## Cc1cc2occ(-c3nc(-c4ccccc4)c(-c4ccccc4)n3-c3ccc(Cl)c(Cl)c3)c(=O)c2cc1Cl
MCF-10A [1]
  Activity: Non-Toxic
MCF-10A [2]
  IC50: 98 µM
[3]
  IC50: 39.9 µM
MCF7
  IC50: 1.56 µM
MCF-10A [4]
  Activity: Toxic
A549
  IC50: 6.25 µM
HepG2
  IC50: 12.5 µM
